The structures appear in SMILES notation.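 1) Cells in 96-well plates. 2) Compound, 48 h, 5 concentrations. 3) Linear interpolation between surrounding doses. 4) Unreached endpoint = highest concentration. Here, GI50 denotes the concentration required for 50% inhibition of growth. TGI marks complete inhibition of growth.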

Among the test systems are CAKI-1 renal; HCT-116 colon; OVCAR-8 ovarian; SK-OV-3 ovarian; HCC-2998 colon; IGROV1 ovarian; NCI/ADR-RES ovarian; NCI-H226 lung; MDA-MB-231 breast; U251 CNS.
Experiment in all cases: NCI anticancer screen, dose series, 48 h

On to `O=Cc1cn(Cc2cccc(Cl)c2)c2ccccc12`, for which the GI50 in the assay with CAKI-1 renal is 0.214 µM; in the assay with HCT-116 colon, 2.39 µM; in the assay on OVCAR-8 ovarian it was 10.3 µM; in the assay with SK-OV-3 ovarian, 1.8 µM; in the assay with HCC-2998 colon it was 12.5 µM; with IGROV1 ovarian, 0.263 µM. In addition, the values for the GI50 in the assay with NCI/ADR-RES ovarian, in the assay on MDA-MB-231 breast and with U251 CNS were 7.99 µM, 7.72 µM and 9.61 µM, respectively. Besides, the TGI turned out to be 1.89 µM in the assay with CAKI-1 renal; 16 µM in the assay with HCT-116 colon; 31.3 µM in the assay on OVCAR-8 ovarian; 16 µM with SK-OV-3 ovarian; 26.2 µM in the assay with HCC-2998 colon; 14.7 µM with IGROV1 ovarian. Besides, the TGI was 28.2 µM in the assay with NCI/ADR-RES ovarian, 0.0499 µM with NCI-H226 lung, 21.5 µM in the assay on MDA-MB-231 breast and 21.8 µM in the assay with U251 CNS.
On to `N#Cc1c(N)nc(N2CCOCC2)c(C#N)c1-c1ccc(Cl)cc1`, for which the GI50 in the assay on CAKI-1 renal is 26 µM; with HCT-116 colon, 65.1 µM; in the assay on OVCAR-8 ovarian, 28 µM; in the assay with SK-OV-3 ovarian, 47.2 µM; with HCC-2998 colon, 21.7 µM; in the assay with IGROV1 ovarian, 14 µM. Besides, the GI50 with NCI/ADR-RES ovarian was 23.6 µM; with NCI-H226 lung it was 50.4 µM; in the assay with MDA-MB-231 breast, 17.5 µM; in the assay on U251 CNS, 38.3 µM. Moreover, the TGI in the assay with CAKI-1 renal is 97.1 µM; with HCT-116 colon, over 100 µM; in the assay with OVCAR-8 ovarian, over 100 µM; with SK-OV-3 ovarian it was over 100 µM; in the assay with HCC-2998 colon, 99.2 µM; in the assay on IGROV1 ovarian, 46.4 µM. Further, the TGI with NCI/ADR-RES ovarian is 76.2 µM; in the assay on NCI-H226 lung, over 100 µM; with MDA-MB-231 breast it was 90.9 µM; with U251 CNS it was over 100 µM.
Consider `C=C(C)[C@@H]1CC[C@]2(C(=O)NCCNCCNCCN)CC[C@]3(C)[C@H](CC[C@@H]4[C@@]5(C)CC[C@H](O)C(C)(C)[C@@H]5CC[C@]43C)[C@@H]12`, for which the GI50 with CAKI-1 renal is 5.92 µM; in the assay on HCT-116 colon, 4.4 µM; in the assay with OVCAR-8 ovarian, 18.8 µM; in the assay on SK-OV-3 ovarian, 17.5 µM; in the assay on HCC-2998 colon it was 14.1 µM; in the assay on IGROV1 ovarian it was 16.1 µM. Further, the GI50 with NCI/ADR-RES ovarian is 18.9 µM; in the assay on NCI-H226 lung, 15.5 µM; with MDA-MB-231 breast, 15.1 µM; in the assay with U251 CNS it was 12.7 µM. Further, the TGI in the assay on CAKI-1 renal was 20.1 µM; with HCT-116 colon, 18.7 µM; in the assay with OVCAR-8 ovarian, 47.1 µM; in the assay on SK-OV-3 ovarian it was 36.9 µM; in the assay on HCC-2998 colon it was 29.5 µM; with IGROV1 ovarian it was 32.5 µM. Moreover, the TGI came out at 59 µM in the assay with NCI/ADR-RES ovarian, 40.4 µM in the assay on NCI-H226 lung, 37.1 µM in the assay on MDA-MB-231 breast and 27.1 µM in the assay with U251 CNS.
Take `CC(C)[C@@]12C[C@@H](OC(=O)COC(=O)/C=C/c3ccccc3)[C@@](C)(O1)[C@@H]1CC[C@@H](C)[C@H]1[C@@H]2OC(=O)/C=C/c1ccccc1`: the GI50 in the assay with CAKI-1 renal is 0.0813 µM; with HCT-116 colon it was over 100 µM; with OVCAR-8 ovarian, 0.173 µM; in the assay on SK-OV-3 ovarian, over 100 µM; in the assay on HCC-2998 colon, over 100 µM; with IGROV1 ovarian, over 100 µM. In addition, the GI50 in the assay on NCI/ADR-RES ovarian was 0.569 µM; with NCI-H226 lung, over 100 µM; with MDA-MB-231 breast, over 100 µM; in the assay with U251 CNS it was over 100 µM. Moreover, the TGI with HCT-116 colon, with OVCAR-8 ovarian, in the assay on SK-OV-3 ovarian, with HCC-2998 colon, with IGROV1 ovarian and with NCI/ADR-RES ovarian was over 100 µM in each case. In addition, the TGI with NCI-H226 lung, with MDA-MB-231 breast and in the assay with U251 CNS was over 100 µM each time.
With `Cc1nc2sc(C(=O)Nc3cccc4ccccc34)c(N)c2cc1C(=O)/C=C/c1ccccc1`, the GI50 with CAKI-1 renal is 0.422 µM; in the assay with HCT-116 colon, 0.174 µM; in the assay on OVCAR-8 ovarian, 0.534 µM; in the assay on SK-OV-3 ovarian, 1.35 µM; in the assay with HCC-2998 colon, 0.852 µM; with IGROV1 ovarian, 0.301 µM. Besides, the GI50 in the assay with NCI/ADR-RES ovarian is 0.173 µM; in the assay with NCI-H226 lung, 0.389 µM; in the assay on MDA-MB-231 breast it was 0.709 µM; in the assay with U251 CNS, 0.236 µM. The TGI is 1.44 µM in the assay with CAKI-1 renal; 0.631 µM in the assay on HCT-116 colon; over 13.4 µM in the assay with OVCAR-8 ovarian; over 50 µM in the assay on SK-OV-3 ovarian; 1.63 µM in the assay on HCC-2998 colon; 1.3 µM in the assay with IGROV1 ovarian. The TGI in the assay on NCI/ADR-RES ovarian amounted to 0.593 µM; with NCI-H226 lung, 1.56 µM; in the assay on MDA-MB-231 breast, 2.61 µM; with U251 CNS it was 1.01 µM.
With `COc1cc(C(O)c2nc3ccccc3s2)cc(OC)c1OC` (stereo not drawn), the GI50 with CAKI-1 renal was 4.89 µM; in the assay on HCT-116 colon, 45.4 µM; with OVCAR-8 ovarian, over 100 µM; in the assay with SK-OV-3 ovarian it was over 100 µM; in the assay with HCC-2998 colon it was over 100 µM; with IGROV1 ovarian, 34.3 µM. Further, the GI50 in the assay on NCI/ADR-RES ovarian is 8.96 µM; in the assay with NCI-H226 lung, 47.1 µM; with MDA-MB-231 breast, 58.7 µM; in the assay on U251 CNS it was over 100 µM. The TGI was 93.9 µM in the assay on CAKI-1 renal; over 100 µM with HCT-116 colon; over 100 µM in the assay with OVCAR-8 ovarian; over 100 µM in the assay on SK-OV-3 ovarian; over 100 µM in the assay on HCC-2998 colon; over 100 µM in the assay on IGROV1 ovarian. Also, the TGI in the assay on NCI/ADR-RES ovarian, with NCI-H226 lung, with MDA-MB-231 breast and with U251 CNS was over 100 µM each time.
As for `COc1ccc(C(=O)COc2cccc(/C=C3\CSc4ccccc4C3=O)c2)cc1`, the GI50 with CAKI-1 renal is 4.07 µM; with HCT-116 colon, 1.35 µM; in the assay on OVCAR-8 ovarian, 2.65 µM; with SK-OV-3 ovarian, 10.8 µM; in the assay with HCC-2998 colon it was 1.82 µM; in the assay with IGROV1 ovarian it was 1.49 µM. Further, the GI50 was 3.08 µM with NCI/ADR-RES ovarian, 4.63 µM in the assay on NCI-H226 lung, 4.33 µM in the assay with MDA-MB-231 breast and 1.57 µM in the assay on U251 CNS. Besides, the TGI stood at 12.5 µM in the assay with CAKI-1 renal; 2.78 µM with HCT-116 colon; 6.71 µM in the assay with OVCAR-8 ovarian; 45.7 µM with SK-OV-3 ovarian; 3.39 µM with HCC-2998 colon; 3.35 µM in the assay on IGROV1 ovarian. The TGI with NCI/ADR-RES ovarian turned out to be 9.64 µM; with NCI-H226 lung, 14.9 µM; in the assay on MDA-MB-231 breast, 12.5 µM; in the assay with U251 CNS, 2.99 µM.
